# In patent publication US12583818B2 (DAEGU-GYEONGBUK MEDICAL INNOVATION FOUNDATION, priority 2020, dated 2026):
# Biological target: T1, Pin1 (Homo sapiens, UniProt Q13526)
# T1 construct: purchased Anaspec
# Experiment: Evaluation of Pin1 enzyme inhibitory activity (Sensolyte Green Pin1 assay kit)
# Format: biochemical
# Conditions: Table 2; read-out: concentration at which Pin1 inhibitory activity was exhibited
# Method: In order to evaluate the Pin1 enzyme inhibitory activity of the compound represented by formula 1 according to the present invention, the following experiment was performed, and the results are shown in Table 2 below.
# The enzyme activity of Pin1 protein was measured using a sensolyte Green Pin1 assay kit of Anaspec. The substrate was diluted in a buffer at a ratio of 1:100 to prepare a concentration of 1 μM, and the protein was diluted in a buffer at a ratio of 1:20 to prepare a concentration of 50 μg/ml. In addition, a developing solution was prepared by diluting thereof in a buffer at a ratio of 1:100.
# The compound prepared in each example was diluted with DMSO and prepared at a concentration of 100 μM, 10 μM, 1 μM or 0.1 μM using a buffer. After sequentially adding 10 μl of the compound prepared in each Example diluted to four concentrations according to the above method, 10 μl of Pin1 protein, and 30 μl of the developing solution to each well of a black 96-well plate, […]. Finally, 50 μl of the substrate was added to each well of the plate, and the enzyme reaction was carried out after shaking the plate for 10 seconds.
# Then, the plate was incubated for 2 hours at room temperature in an environment without light, and the fluorescence values at 490 nm/520 nm wavelength were measured using a device of Synergy Neo […]. The results are shown in Table 2 below by dividing the grades of A to D for each concentration (μM) at which the Pin1 enzyme activity is inhibited.
# T1 sequence (Q13526 whole entry): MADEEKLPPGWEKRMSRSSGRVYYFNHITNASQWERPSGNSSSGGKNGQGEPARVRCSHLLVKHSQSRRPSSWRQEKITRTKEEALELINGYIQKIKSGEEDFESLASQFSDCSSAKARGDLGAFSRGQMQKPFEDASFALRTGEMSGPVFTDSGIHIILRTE
row,IC50 [µM],Structure (SMILES)
1,< 1,"O=S(=O)(NCCCc1c[nH]c2ccc(Cl)cc12)c1ccc(OCCCN2CCCNCC2)cc1 [Example 102, 4-(3-(1,4-diazepan-1-yl)propoxy)-N-(3-(5-chloro-1H-indol-3-yl)propyl)benzenesulfonamide]"
2,< 1,"O=S(=O)(NCCCc1c[nH]c2ccc(Cl)cc12)c1ccc(OCCCN2CCCCC2)cc1 [Example 87, N-(3-(5-chloro-1H-indol-3-yl)propyl)-4-(3-(piperidin-1-yl)propoxy)benzenesulfonamide]"
3,< 1,"CN1CCN(CC2(COc3ccc(S(=O)(=O)NCCCc4c[nH]c5ccc(Cl)cc45)cc3)CC2)CC1 [Example 116, N-(3-(5-chloro-1H-indole-3-yl)propyl)-4-((1-((4-methylpiperazine-1-yl)methyl)cyclopropyl)methoxy)benzenesulfonamide]"
4,< 1,"CC1CN(CCCOc2ccc(S(=O)(=O)NCCCc3c[nH]c4ccc(Cl)cc34)cc2)CCN1 (stereo not shown) [Example 107, N-(3-(5-chloro-1H-indole-3-yl)propyl)-4-(3-(3-methylpiperazine-1-yl)propoxy)benzenesulfonamide]"

# Same assay, conditions: concentration at which the Pin1 enzyme activity is inhibited; 2 hours at room temperature, fluorescence 490 nm/520 nm; read-out: Pin 1 inhibition
row,IC50 [µM],Structure (SMILES)
1,1 to 10,"O=C1CN(CCCOc2ccc(S(=O)(=O)NCCCc3c[nH]c4ccc(Cl)cc34)cc2)CCN1 [Example 163, N-(3-(5-chloro-1H-indol-3-yl)propyl)-4-(3-(3-oxopiperazin-1-yl)propoxy)benzenesulfonamide]"
2,10 to 100,"CC(C)N1CCN(CCCOc2ccc(S(=O)(=O)NCCCc3c[nH]c4ccccc34)cc2)CC1 [Example 48, N-(3-(1H-indol-3-yl)propyl)-4-(3-(4-isopropylpiperazin-1-yl)propoxy)benzenesulfonamide]"
3,1 to 10,"O=C(NCCCc1c[nH]c2ccc(Cl)cc12)c1ccc(OCCCN2CCNCC2)cc1 [Example 144, N-(3-(5-chloro-1H-indol-3-yl)propyl)-4-(3-(piperazin-1-yl)propoxy)benzamide]"
4,< 1,"O=S(=O)(NCCCc1c[nH]c2ccc(Cl)cc12)c1ccc(OCCCN2CCCNCC2)cc1 [Example 102, 4-(3-(1,4-diazepan-1-yl)propoxy)-N-(3-(5-chloro-1H-indol-3-yl)propyl)benzenesulfonamide]"
5,< 1,"O=S(=O)(NCCCc1c[nH]c2ccc(Cl)cc12)c1ccc(OCCCN2CCCCC2)cc1 [Example 87, N-(3-(5-chloro-1H-indol-3-yl)propyl)-4-(3-(piperidin-1-yl)propoxy)benzenesulfonamide]"
6,> 100,"CN(C)CCCOc1ccc(S(=O)(=O)NCCCn2cnc3ccccc32)cc1 [Example 40, N-(3-(1H-benzo[d]imidazol-1-yl)propyl)-4-(3-(dimethylamino)propoxy)benzenesulfonamide]"
7,10 to 100,"CN1CCN(CCCOc2ccc(S(=O)(=O)N3CCC(c4c[nH]c5ccc(F)cc45)CC3)cc2)CC1 [Example 71, 5-fluoro-3-(1-((4-(3-(4-methylpiperazin-1-yl)propoxy)phenyl)sulfonyl)piperidin-4-yl)-1H-indole]"
8,1 to 10,"CN1CCN(CCCOc2ccc(S(=O)(=O)NCCCc3c[nH]c4ccc(Cl)cc34)cc2)CC1=O [Example 162, N-(3-(5-chloro-1H-indol-3-yl)propyl)-4-(3-(4-methyl-3-oxopiperazin-1-yl)propoxy)benzenesulfonamide]"
9,< 1,"CN1CCN(CC2(COc3ccc(S(=O)(=O)NCCCc4c[nH]c5ccc(Cl)cc45)cc3)CC2)CC1 [Example 116, N-(3-(5-chloro-1H-indole-3-yl)propyl)-4-((1-((4-methylpiperazine-1-yl)methyl)cyclopropyl)methoxy)benzenesulfonamide]"
10,1 to 10,"O=S(=O)(NCCCc1c[nH]c2ccc(F)cc12)c1ccc(OCCCC2CCNCC2)cc1 [Example 97, N-(3-(5-fluoro-1H-indol-3-yl)propyl)-4-(3-(piperidin-4-yl)propoxy)benzenesulfonamide]"
11,1 to 10,"CCN1CCN(CCCOc2ccc(S(=O)(=O)NCCCc3c[nH]c4ccc(F)cc34)cc2)CC1 [Example 63, 4-(3-(4-ethylpiperazin-1-yl)propoxy)-N-(3-(5-fluoro-1H-indol-3-yl)propyl)benzenesulfonamide]"
12,10 to 100,"CN(C)CCOc1ccc(S(=O)(=O)NCCCc2c[nH]c3ccccc23)cc1 [Example 21, N-(3-(1H-indol-3-yl)propyl)-4-(2-(dimethylamino)ethoxy)benzenesulfonamide]"
13,> 100,"CN(C)CCCOc1ccc(S(=O)(=O)NCCCN2CCCC2=O)cc1 [Example 18, 4-(3-(dimethylamino)propoxy)-N-(3-(2-oxopyrrolidin-1-yl)propyl)benzenesulfonamide]"
14,< 1,"CC1CN(CCCOc2ccc(S(=O)(=O)NCCCc3c[nH]c4ccc(Cl)cc34)cc2)CCN1 (stereo not shown) [Example 107, N-(3-(5-chloro-1H-indole-3-yl)propyl)-4-(3-(3-methylpiperazine-1-yl)propoxy)benzenesulfonamide]"
15,1 to 10,"O=S(=O)(NCCCc1c[nH]c2ccc(Cl)cc12)c1ccc(Oc2cccc(N3CCCNCC3)c2)cc1 [Example 129, 4-(3-(1,4-diazepan-1-yl)phenoxy)-N-(3-(5-chloro-1H-indol-3-yl)propyl)benzenesulfonamide]"
16,1 to 10,"O=S(=O)(NCCCc1c[nH]c2ccc(Cl)cc12)c1ccc(Oc2cccc(Br)c2)cc1 [Example 119, 4-(3-bromophenoxy)-N-(3-(5-chloro-1H-indol-3-yl)propyl)benzenesulfonamide]"

row,IC50 [µM],Structure (SMILES)
1,10 to 100,"CCCCCOc1ccc(S(=O)(=O)NCCCc2c[nH]c3ccccc23)cc1 [Example 27, N-(3-(1H-indol-3-yl)propyl)-4-(pentyloxy)benzenesulfonamide]"
2,> 100,"CN(C)CCCOc1ccc(S(=O)(=O)NCCc2nc3ccccc3[nH]2)cc1 [Example 37, N-(2-(1H-benzo[d]imidazol-2-yl)ethyl)-4-(3-(dimethylamino)propoxy)benzenesulfonamide]"
3,1 to 10,"O=S(=O)(NCCCc1c[nH]c2ccc(Cl)cc12)c1ccc(Nc2cccc(N3CCOCC3)c2)cc1 [Example 126, N-(3-(5-chloro-1H-indol-3-yl)propyl)-4-((3-morpholinophenyl)amino)benzenesulfonamide]"
4,1 to 10,"O=S(=O)(NCCCc1c[nH]c2ccc(Cl)cc12)c1ccc(Oc2cccc(N3CCOCC3)c2)cc1 [Example 128, N-(3-(5-chloro-1H-indol-3-yl)propyl)-4-(3-morpholinophenoxy)benzenesulfonamide]"
5,1 to 10,"O=S(=O)(NCCCc1c[nH]c2ccc(Cl)cc12)c1cccc(OCCCN2CCNCC2)c1 [Example 96, N-(3-(5-chloro-1H-indol-3-yl)propyl)-3-(3-(piperazin-1-yl)propoxy)benzenesulfonamide]"
6,> 100,"CN1CCN(CCCOc2ccc(S(=O)(=O)NCCCn3cnc4ccccc43)cc2)CC1 [Example 42, N-(3-(1H-benzo[d]imidazol-1-yl)propyl)-4-(3-(4-methylpiperazin-1-yl)propoxy)benzenesulfonamide]"
7,> 100,"CN(C)CCCOc1ccc(S(=O)(=O)NCCc2cc3ccccc3[nH]2)cc1 [Example 38, N-(2-(1H-indol-2-yl)ethyl)-4-(3-(dimethylamino)propoxy)benzenesulfonamide]"
8,1 to 10,"Cc1ccc2[nH]cc(CCCNS(=O)(=O)c3ccc(OCCCN4CCN(C)CC4)cc3)c2c1 [Example 67, N-(3-(5-methyl-1H-indol-3-yl)propyl)-4-(3-(4-methylpiperazin-1-yl)propoxy)benzenesulfonamide]"
9,> 100,"CC(C)N1CCN(CCCOc2ccc(S(=O)(=O)NCCc3c[nH]c4ccccc34)cc2)CC1 [Example 51, N-(2-(1H-indol-3-yl)ethyl)-4-(3-(4-isopropylpiperazin-1-yl)propoxy)benzenesulfonamide]"
10,> 100,"CN(C)CCCOc1ccc(S(=O)(=O)NCCCc2cn(C)c3ccccc23)cc1 [Example 46, 4-(3-(dimethylamino)propoxy)-N-(3-(1-methyl-1H-indole-3-yl)propyl)benzenesulfonamide]"
11,10 to 100,"C[C@@H]1CN(CCCOc2ccc(S(=O)(=O)NCCCc3c[nH]c4ccc(F)cc34)cc2)C[C@H](C)N1 [Example 72, 4-(3-((3S,5R)-3,5-dimethylpiperazine-1-yl)propoxy)-N-(3-(5-fluoro-1H-indole-3-yl)propyl)benzenesulfonamide]"
12,> 100,"CN(C)CCCOc1ccc(S(=O)(=O)NCCc2ccc(C(=O)O)cc2)cc1 [Example 17, 4-(2-(4-(3-(dimethylamino)propoxy)phenylsulfonamido)ethyl)benzoic acid]"
13,10 to 100,"COc1ccc2[nH]cc(C3CCN(S(=O)(=O)c4ccc(OCCCN5CCN(C)CC5)cc4)CC3)c2c1 [Example 64, 5-methoxy-3-(1-((4-(3-(4-methylpiperazin-1-yl)propoxy)phenyl)sulfonyl)piperidin-4-yl)-1H-indole]"
14,10 to 100,"COc1ccc2[nH]cc(CCNS(=O)(=O)c3ccc(OCCCN4CCN(C)CC4)cc3)c2c1 [Example 49, N-(2-(5-methoxy-1H-indol-3-yl)ethyl)-4-(3-(4-methylpiperazin-1-yl)propoxy)benzenesulfonamide]"
15,> 100,"CN(C)CCCOc1ccc(S(=O)(=O)NCCCn2ccc3ccccc32)cc1 [Example 39, N-(3-(1H-indol-1-yl)propyl)-4-(3-(dimethylamino)propoxy)benzenesulfonamide]"
16,1 to 10,"CN1CCN(c2ccc(Nc3ccc(S(=O)(=O)NCCCc4c[nH]c5ccc(Cl)cc45)cc3)cc2)CC1 [Example 142, N-(3-(5-chloro-1H-indol-3-yl)propyl)-4-((4-(4-methylpiperazin-1-yl)phenyl)amino)benzenesulfonamide]"

row,Structure (SMILES),IC50 [µM]
1,"CCCCOc1ccc(S(=O)(=O)NCCC(=O)c2ccccc2)cc1 [Example 12, 4-butoxy-N-(3-oxo-3-phenylpropyl)benzenesulfonamide]",10 to 100
2,"CCCCOc1ccc(S(=O)(=O)NCCCC2CCCCC2)cc1 [Example 4, 4-butoxy-N-(3-cyclohexylpropyl)benzenesulfonamide]",> 100
3,"CCCCOc1ccc(S(=O)(=O)NCCCc2cccc3ccccc23)cc1 [Example 19, 4-butoxy-N-(3-(naphthalen-1-yl)propyl)benzenesulfonamide]",> 100
4,"CCCCOc1ccc(S(=O)(=O)NCCCN2CCCC2=O)cc1 [Example 13, 4-butoxy-N-(3-(2-oxopyrrolidin-1-yl)propyl)benzenesulfonamide]",> 100
